# Columns and labels:
# [1] = target: T1, NEDD8 activating enzyme (Homo sapiens, UniProt Q8TBC4); test: Inhibition of NAE (unknown origin) mediated neddylation assessed as decrease in NEDD8-Ubcl2 adduct formation incubated for 2 hrs in presence of L-glutathione and ATP by HTRF assay; type: protein-complex assay
# T1 sequence (Q8TBC4 whole entry): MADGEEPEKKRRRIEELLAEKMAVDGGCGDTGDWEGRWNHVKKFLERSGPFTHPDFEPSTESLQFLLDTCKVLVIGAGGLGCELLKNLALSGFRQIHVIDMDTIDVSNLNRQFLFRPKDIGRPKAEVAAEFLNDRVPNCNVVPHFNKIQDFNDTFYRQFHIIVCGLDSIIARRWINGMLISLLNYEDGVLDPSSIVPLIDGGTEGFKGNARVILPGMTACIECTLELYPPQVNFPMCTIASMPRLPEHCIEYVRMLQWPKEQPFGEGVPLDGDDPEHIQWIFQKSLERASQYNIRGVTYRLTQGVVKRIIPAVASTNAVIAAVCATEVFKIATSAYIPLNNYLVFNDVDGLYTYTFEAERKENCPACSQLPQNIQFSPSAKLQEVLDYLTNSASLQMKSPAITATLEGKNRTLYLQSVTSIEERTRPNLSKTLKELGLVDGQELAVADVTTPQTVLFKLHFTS
# T1 sequence (Q13564 whole entry): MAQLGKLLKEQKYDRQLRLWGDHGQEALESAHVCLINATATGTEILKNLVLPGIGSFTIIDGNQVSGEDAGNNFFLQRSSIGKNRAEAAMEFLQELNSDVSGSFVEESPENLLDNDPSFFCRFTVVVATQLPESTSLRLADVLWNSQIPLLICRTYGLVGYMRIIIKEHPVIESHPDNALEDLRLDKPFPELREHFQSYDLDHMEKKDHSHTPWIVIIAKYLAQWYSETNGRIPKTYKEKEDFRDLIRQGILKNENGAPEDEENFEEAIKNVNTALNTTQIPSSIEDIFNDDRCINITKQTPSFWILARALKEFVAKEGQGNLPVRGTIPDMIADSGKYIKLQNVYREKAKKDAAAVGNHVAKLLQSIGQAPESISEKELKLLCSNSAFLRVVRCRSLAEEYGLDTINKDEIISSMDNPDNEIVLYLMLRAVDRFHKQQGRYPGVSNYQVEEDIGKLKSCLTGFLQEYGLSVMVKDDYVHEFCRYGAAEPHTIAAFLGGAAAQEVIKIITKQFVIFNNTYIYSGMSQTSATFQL
# [2] = test system: HCT-116; test: Antiproliferative activity against human HCT-116 cells assessed as cell growth inhibition by sulforhodamine B assay; type: functional, cell-based
SMILES,IC50 [1] [nM],IC50 [2] [nM]
NS(=O)(=O)OC[C@@H]1C[C@@H](Nc2ncnc(N[C@H]3CCc4ccccc43)c2F)C[C@@H]1O,219,–
NS(=O)(=O)OC[C@@H]1C[C@@H](n2nnc3c(N[C@H]4CC5(CCN(C(=O)O[C@@H]6CCOC6)CC5)c5ccccc54)ncnc32)C[C@@H]1O,0.57,110
CC(C)OC(=O)N1CCC2(CC1)C[C@H](Nc1ncnc3c1nnn3[C@@H]1C[C@@H](COS(N)(=O)=O)[C@@H](O)C1)c1ccccc12,4.2,121
COC(=O)[C@H]1C=C[C@@H](Nc2ncnc3c2nnn3[C@@H]2C[C@@H](COS(N)(=O)=O)[C@@H](O)C2)C1,80.9,–
NS(=O)(=O)OC[C@@H]1C[C@@H](n2nnc3c(N[C@H]4CC5(CCN(C(=O)OCCN6CCOCC6)CC5)c5ccccc54)ncnc32)C[C@@H]1O,9.98,338
CN1CCC2(CC1)C[C@H](Nc1ncnc3c1nnn3[C@@H]1C[C@@H](COS(N)(=O)=O)[C@@H](O)C1)c1ccccc12,187,–
CC(C)(C)NC(=O)N1CCC2(CC1)C[C@H](Nc1ncnc3c1nnn3[C@@H]1C[C@@H](COS(N)(=O)=O)[C@@H](O)C1)c1ccccc12,0.02,151
NS(=O)(=O)OC[C@@H]1C[C@@H](n2nnc3c(N[C@H]4CC5(CCN(C(=O)OC(C(F)(F)F)C(F)(F)F)CC5)c5ccccc54)ncnc32)C[C@@H]1O,21.1,–
NS(=O)(=O)OC[C@@H]1C[C@@H](n2nnc3c(N[C@H]4CC5(CCN(C(=O)OCCF)CC5)c5ccccc54)ncnc32)C[C@@H]1O,6,104
NS(=O)(=O)OC[C@@H]1C[C@@H](n2ncc3c(N[C@H]4CCc5ccccc54)ccnc32)C[C@@H]1O,> 10000,–
NS(=O)(=O)OC[C@@H]1C[C@@H](n2nnc3c(N[C@H]4CC5(CCN(C(=O)OC(CO)CO)CC5)c5ccccc54)ncnc32)C[C@@H]1O,120,–
NS(=O)(=O)OC[C@@H]1C[C@@H](n2nnc3c(NC4CCCC4)ncnc32)C[C@@H]1O,> 10000,–
NS(=O)(=O)OC[C@@H]1C[C@@H](n2nnc3c(N[C@H]4CC5(CCNCC5)c5ccccc54)ncnc32)C[C@@H]1O,66.9,–

# The remaining lines, values ahead:
IC50 [1] [nM],IC50 [2] [nM],SMILES
30.6,–,NS(=O)(=O)OC[C@@H]1C[C@@H](n2nnc3c(NCc4ccco4)ncnc32)C[C@@H]1O
> 10000,–,NS(=O)(=O)OC[C@@H]1C[C@@H](n2nnc3c(Nc4cnc5ccccn45)ncnc32)C[C@@H]1O
149,–,NS(=O)(=O)OC[C@@H]1C[C@@H](n2nnc3c(NCCCc4ccccc4)ncnc32)C[C@@H]1O
15.9,> 10000,NS(=O)(=O)OC[C@@H]1C[C@@H](n2nnc3c(NCc4cccs4)ncnc32)C[C@@H]1O
81.8,–,NS(=O)(=O)OC[C@@H]1C[C@@H](n2nnc3c(NCCc4ccccc4)ncnc32)C[C@@H]1O
3.56,70.2,COCCO[C@H]1Cc2ccccc2[C@H]1Nc1ncnc2c1nnn2[C@@H]1C[C@@H](COS(N)(=O)=O)[C@@H](O)C1
> 10000,–,NS(=O)(=O)OC[C@@H]1C[C@@H](n2nnc3c(Nn4ccc5ccccc54)ncnc32)C[C@@H]1O
> 10000,–,COCC(=O)N[C@@H]1Cc2ccccc2[C@H]1Nc1ncnc2c1nnn2[C@@H]1C[C@@H](COS(N)(=O)=O)[C@@H](O)C1
6.11,3860,NS(=O)(=O)OC[C@@H]1C[C@@H](n2nnc3c(NCc4ccccc4F)ncnc32)C[C@@H]1O
> 10000,–,NS(=O)(=O)OC[C@@H]1C[C@@H](n2nnc3c(Nc4n[nH]c5ccccc45)ncnc32)C[C@@H]1O
21.1,–,CCCCCCNc1ncnc2c1nnn2[C@@H]1C[C@@H](COS(N)(=O)=O)[C@@H](O)C1
170,–,COCC(=O)N[C@H]1Cc2ccccc2[C@H]1Nc1ncnc2c1nnn2[C@@H]1C[C@@H](COS(N)(=O)=O)[C@@H](O)C1
107,–,NS(=O)(=O)OC[C@@H]1C[C@@H](n2nnc3c(NCCc4cccs4)ncnc32)C[C@@H]1O
207,–,CN(C)[C@H]1Cc2ccccc2[C@H]1Nc1ncnc2c1nnn2[C@@H]1C[C@@H](COS(N)(=O)=O)[C@@H](O)C1
